Source: BigSolDB 2.1

O=C(Nc1ccc(Cl)cc1)Nc1ccc(Cl)c(Cl)c1
solubility (mole fraction)
Details | 288.15 K | 293.15 K | 298.15 K | 303.15 K | 308.15 K | 313.15 K | 318.15 K
in ethylene glycol | 4.25e-06 | 5.89e-06 | 8.3e-06 | 1.02e-05 | 1.38e-05 | 2.14e-05 | 2.64e-05
in water | 1.96e-09 | 2.38e-09 | 2.85e-09 | 3.78e-09 | 5.72e-09 | 7.48e-09 | 9.28e-09
